Test results: patent US8933070B2, “Methods of targeting PTEN mutant diseases and compositions therefor” (University Health Network, priority 2010, dated 2015)

Legend:
PLK2 = biological target: T1, PLK2 (Homo sapiens, UniProt Q9NYY3); assay: PLK2 inhibition assay (Z-Lyte); type: biochemical; conditions: dose of 10 μM; read-out: PLK2 relative inhibition percentage
T1 construct: purchased Invitrogen PV4204
Procedure: PLK2 inhibition was determined using the Z-Lyte assay kit from Invitrogen (cat# PV3802). The assay was performed using the recommended manufacturer's instructions with 60 μM ATP and 133 nM PLK2 (Invitrogen cat #PV4204). The % inhibition values were determined according to the manufacturer's directions and IC50 values were obtained using a non-linear 4 point logistic curve fit (XLfit4, IDBS)

PLK1 = biological target: T2, PLK1 (Homo sapiens, UniProt P53350); assay: PLK1 inhibition assay (Z-Lyte); type: biochemical; conditions: dose of 10 μM; read-out: PLK1 relative inhibition percentage
T2 construct: purchased Invitrogen PV3501
Procedure: PLK1 inhibition was determined using the Z-Lyte assay kit from Invitrogen (cat#PV3802). The assay was performed using the recommended manufacturer's instructions with 25 μM ATP and 8 nM PLK1 (Invitrogen cat #PV3501). The % inhibition values were determined according to the manufacturer's directions and IC50 values were obtained using a non-linear 4 point logistic curve fit (XLfit4, IDBS)

[1] = system: HCT116 p53^−/− colon cancer cell line; assay: Cell growth inhibition, SRB assay, extended panel; type: cell-based; conditions: Homo sapiens, HCT-116, read-out: GI50 Range HCT116 p53^−/−
Procedure: (§1) Breast cancer cells (MCF-7, MDA-MB-468 and HCC1954), colon cancer cells (SW620) and lung cancer cells (A549), together with human mammary epithelial primary cells (HMEC) were seeded (1000 to 4000 per 80 μl per well depending on the cell growth rate) into 96-well plates 24 hours before compound overlay. Compounds were prepared as 10 mM stock solutions in 100% DMSO which were diluted with DMEM (Dulbecco's Modified Eagle's Medium) cell growth Medium (Invitrogen, Canada) containing 10% FBS (Fetal Bovine Serum) to concentrations ranging from 50 nM to 250 μM. Aliquots (20 μl) from each concentration were overlaid to 80 μl of the pre-seeded cells in the 96-plates to make final concentrations of 10 nM to 50 μM. The cells were cultured for 5 days before the Sulforhodamine B (SRB) assay was performed to determine the compound's cell growth inhibition activity.
(§2) Sulforhodamine B (Sigma, Canada) is a water-soluble dye that binds to the basic amino acids of cellular proteins. Thus, colorimetric measurement of the bound dye provides an estimate of the total protein mass that is related to the cell number. The cells are fixed in situ by gently aspirating off the culture media and adding 50 μl ice cold 10% Trichloroacetic Acid (TCA) per well and incubated at 4° C. for 30-60 min. The plates are washed with water five times and allowed to air dry for 5 min. Addition of 50 μl 0.4% (w/v) SRB solution in 1% (v/v) acetic acid to each well and incubatation for […] at RT completes the staining reaction. Following staining, plates are washed four times with 1% acetic acid to remove unbound dye and then allowed to air dry for 5 min. The stain is solubilized with 100 μl of 10 mM Tris pH 10.5 per well. Absorbance is read at 570 nm.
(§3) The percentage (%) of relative growth inhibition was calculated by comparing to DMSO-treated only cells (100%). GI50's were determined for compounds with cytotoxic activity. The GI50 was calculated using GraphPad PRISM software (GraphPad Software, Inc., USA).
(§4) In addition to the cell lines tested as described above, selected compounds have been assayed against an extended panel. These include: breast cancer cell lines (T-47D, MDA-MB-231, Hs578T, 8T-474, SKBr-3 and HCC1954), a lung cancer cell line (H358), brain cancer cell lines (A172, Hs683 and SK-N-SH), colon cancer cell lines (Colo 205, HCT-15, HCT116 p53^+/+ and HCT116 p53^−/−), ovarian cancer cell lines (OVCAR-3, SK-OV-3 and SW626), a melanoma cell line (518A2), a prostate cancer cell line (PC-3) and an immortalized breast cell line (184A1). The SRB assay described above was used to assay test compounds against the extended panel (Table 6).

[2] = system: HCT116 p53^+/+ colon cancer cell line; assay: Cell growth inhibition, SRB assay, extended panel; type: cell-based; conditions: Homo sapiens, HCT-116, read-out: GI50 Range HCT116 p53^+/+
Procedure: as §1, §2, §3, §4

T1 sequence (Q9NYY3 whole entry): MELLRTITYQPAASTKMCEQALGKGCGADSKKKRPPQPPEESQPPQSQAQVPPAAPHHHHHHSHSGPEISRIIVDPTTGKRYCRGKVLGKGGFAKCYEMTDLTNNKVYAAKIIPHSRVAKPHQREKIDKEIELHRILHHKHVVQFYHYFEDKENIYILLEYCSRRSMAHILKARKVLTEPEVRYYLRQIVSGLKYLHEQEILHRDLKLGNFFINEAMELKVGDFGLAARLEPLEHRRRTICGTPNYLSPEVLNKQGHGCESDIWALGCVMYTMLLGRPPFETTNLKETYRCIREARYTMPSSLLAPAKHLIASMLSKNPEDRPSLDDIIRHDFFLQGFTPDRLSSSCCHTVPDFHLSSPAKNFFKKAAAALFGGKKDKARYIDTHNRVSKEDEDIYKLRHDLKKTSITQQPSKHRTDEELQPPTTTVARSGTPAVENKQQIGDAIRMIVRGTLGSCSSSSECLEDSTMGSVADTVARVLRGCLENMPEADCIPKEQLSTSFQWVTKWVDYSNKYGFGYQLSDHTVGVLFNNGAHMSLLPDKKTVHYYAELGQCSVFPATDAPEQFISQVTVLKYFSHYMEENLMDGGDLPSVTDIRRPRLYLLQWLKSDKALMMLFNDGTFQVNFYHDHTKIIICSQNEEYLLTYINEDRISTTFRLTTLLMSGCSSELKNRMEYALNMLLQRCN
T2 sequence (P53350 whole entry): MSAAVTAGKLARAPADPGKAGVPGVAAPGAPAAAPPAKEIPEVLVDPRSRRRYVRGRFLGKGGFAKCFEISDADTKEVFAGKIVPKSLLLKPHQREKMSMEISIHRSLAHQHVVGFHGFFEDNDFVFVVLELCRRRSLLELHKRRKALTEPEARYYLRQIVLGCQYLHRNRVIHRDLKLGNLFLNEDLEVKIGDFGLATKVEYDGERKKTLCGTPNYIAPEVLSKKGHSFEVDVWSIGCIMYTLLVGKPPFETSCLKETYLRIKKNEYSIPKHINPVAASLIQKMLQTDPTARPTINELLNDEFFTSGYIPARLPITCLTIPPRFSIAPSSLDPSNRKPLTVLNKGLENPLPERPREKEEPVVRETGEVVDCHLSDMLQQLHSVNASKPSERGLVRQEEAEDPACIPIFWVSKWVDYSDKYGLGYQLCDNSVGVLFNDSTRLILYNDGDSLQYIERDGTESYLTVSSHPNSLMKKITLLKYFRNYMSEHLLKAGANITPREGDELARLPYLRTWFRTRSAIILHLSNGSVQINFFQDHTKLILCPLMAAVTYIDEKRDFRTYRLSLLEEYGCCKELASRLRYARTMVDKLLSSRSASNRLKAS

Which inhibition at 10 µM (PLK2) does the source give for `CN1CCN(c2ccc(/C=C/c3n[nH]c4cc(C=C5C(=O)Nc6ccccc65)ccc34)cn2)CC1` [Compound 32] here?
Its inhibition at 10 µM is under 50%.

What about the inhibition at 10 µM (PLK1) of the same molecule?
The inhibition at 10 µM was under 50%.

And the GI50 [1]?
Its GI50 is under 5 µM.

And the GI50 [2]?
Its GI50 is under 5 µM.
